The values below are quoted from earlier work in patent publication US8163753B2, “2,3-dihydro-6-nitroimidazo (2,1-b) oxazole compounds for the treatment of tuberculosis” (priority 2003, dated 2012).

The data set has as its system multi-drug-resistant Mycobacterium tuberculosis. To be noted: literature report; cited from earlier work.

Take `CCC1Cn2cc([N+](=O)[O-])nc2O1` (stereo not shown) [CGI-17341]: the “bactericidal action to multi-drug-resistant Mycobacterium tuberculosis” value was “has a bactericidal action”.
